Measured values published in patent US20190292167A1, “HETEROAROMATIC COMPOUNDS USEFUL FOR THE TREATMENT OF PROLIFERATIVE DISEASES” (Syros Pharmaceuticals, Inc., priority 2013, published 2019).
Structures can show the parent of a compound that is named as a salt. Where two headings read alike, the source gives them in different places.

Key:
Jurkat = assay: Inhibition of cell proliferation, CellTiter-Glo, 72 hour; type: cell-based; details: Blood cancer cell line, 72 hour, read-out: Inhibition of Proliferation of Jurkat Cells
Experimental: The following cancer cell lines were tested with the media conditions indicated: […]

CDK7 = biological target: T1, CDK7 (Homo sapiens, UniProt P50613); assay: Adapta kinase assay (Life Technologies) against CDK7, co-factors cyclin H and MNAT1; type: biochemical; details: read-out: CDK7 Inhibition
T1 construct: purchased Life Technologies (Adapta kinase assay service)
Experimental: Compounds of the invention were assayed for activity against CDK7 at Life Technologies™ (Grand Island, N.Y.) using their commercially available Adapta® kinase assay services. […] Details of the assay, including the substrate used for CDK7 kinase, are available on the Life Technologies web site (http://www.lifetechnologies.com/us/en/homellife-science/drug-discovery/target-and-lead-identification-and-validation/kinasebiology/kinase-activity-assays.html).
The co-factors used for the assay were cyclin H and MNAT1.

T1 sequence (P50613 whole entry): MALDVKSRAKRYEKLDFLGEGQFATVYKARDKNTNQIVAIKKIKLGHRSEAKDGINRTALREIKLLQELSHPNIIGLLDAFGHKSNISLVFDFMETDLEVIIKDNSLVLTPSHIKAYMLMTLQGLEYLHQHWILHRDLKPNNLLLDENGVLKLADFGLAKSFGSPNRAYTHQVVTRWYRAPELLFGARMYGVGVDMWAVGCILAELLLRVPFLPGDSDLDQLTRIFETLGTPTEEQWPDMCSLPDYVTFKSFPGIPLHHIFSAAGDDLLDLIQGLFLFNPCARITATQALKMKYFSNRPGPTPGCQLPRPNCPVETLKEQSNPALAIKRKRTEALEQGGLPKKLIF
T1 sequence (P51946 whole entry partner): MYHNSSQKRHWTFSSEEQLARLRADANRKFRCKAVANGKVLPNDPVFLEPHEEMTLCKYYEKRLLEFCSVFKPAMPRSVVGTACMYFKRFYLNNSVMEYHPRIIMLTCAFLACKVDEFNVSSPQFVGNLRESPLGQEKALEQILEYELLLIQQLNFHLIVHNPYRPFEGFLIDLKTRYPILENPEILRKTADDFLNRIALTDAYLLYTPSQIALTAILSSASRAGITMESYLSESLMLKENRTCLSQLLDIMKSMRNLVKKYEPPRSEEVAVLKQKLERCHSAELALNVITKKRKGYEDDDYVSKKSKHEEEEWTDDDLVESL
T1 sequence (P51948 whole entry partner): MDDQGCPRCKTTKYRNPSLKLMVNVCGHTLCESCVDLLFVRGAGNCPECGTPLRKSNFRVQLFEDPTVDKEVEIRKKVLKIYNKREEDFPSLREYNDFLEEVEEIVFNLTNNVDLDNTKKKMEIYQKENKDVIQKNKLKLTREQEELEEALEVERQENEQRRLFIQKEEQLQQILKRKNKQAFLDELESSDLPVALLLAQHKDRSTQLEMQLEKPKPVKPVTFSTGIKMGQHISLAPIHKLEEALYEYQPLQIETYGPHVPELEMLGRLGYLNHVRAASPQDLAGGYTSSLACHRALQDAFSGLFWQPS

CN(C)CC=CC(=O)Nc1ccc(C(=O)NC2CNCC(Nc3ncc(Cl)c(-c4c[nH]c5ccccc45)n3)C2)cc1 (racemic) [Compound 150, N-((+/−trans)-5-((5-chloro-4-(1H-indol-3-yl)pyrimidin-2-yl)amino)piperidin-3-yl)-4-((E)-4-(dimethylamino)but-2-enamido)benzamide]
IC50 (Jurkat): < 500 nM
IC50 (CDK7): < 100 nM

N#Cc1cnc(N[C@@H]2CCN(C(=O)c3ccc(N)cc3)C2)nc1-c1c[nH]c2ccccc12 [Compound 37, 2-((R)-1-(4-aminobenzoyl)pyrrolidin-3-ylamino)-4-(1H-indol-3-yl)pyrimidine-5-carbonitrile]
IC50 (Jurkat; Homo sapiens, Jurkat, 72 h): 500 to 5000 nM
IC50 (CDK7): < 100 nM

Cc1[nH]c2ccccc2c1-c1nc(NC2CCN(C(=O)c3ccc(NC(=O)/C=C/CN(C)C)cc3)CC2)ncc1Cl [Compound 125, (E)-N-(4-(4-((5-chloro-4-(2-methyl-1H-indol-3-yl)pyrimidin-2-yl)amino)piperidine-1-carbonyl)phenyl)-4-(dimethylamino)but-2-enamide]
IC50 (Jurkat; Homo sapiens, Jurkat, 72 h): < 500 nM
IC50 (CDK7): < 100 nM

CN1CCN(C/C=C/C(=O)Nc2ccc(C(=O)N3CC[C@@H](Nc4ncc(C#N)c(-c5c[nH]c6ccccc56)n4)C3)cc2)CC1 [Compound 110, (E)-N-(4-((R)-3-(5-cyano-4-(1H-indol-3-yl)pyrimidin-2-ylamino)pyrrolidine-1-carbonyl)phenyl)-4-(4-methylpiperazin-1-yl)but-2-enamide]
IC50 (Jurkat; Homo sapiens, Jurkat, 72 h): < 500 nM
IC50 (CDK7): < 100 nM

Cc1cc(C(=O)N2CCC(Nc3ncc(Cl)c(-c4c[nH]c5ccccc45)n3)CC2)ccc1NC(=O)/C=C/CN(C)C [Compound 113, (E)-N-(4-(4-(5-chloro-4-(1H-indol-3-yl)pyrimidin-2-ylamino)piperidine-1-carbonyl)-2-methylphenyl)-4-(dimethylamino)but-2-enamide]
IC50 (Jurkat; Homo sapiens, Jurkat, 72 h): < 500 nM
IC50 (CDK7): < 100 nM

C=CC(=O)Nc1ccc(CNC(=O)[C@H]2CNCC(Nc3ncc(Cl)c(-c4c[nH]c5ccccc45)n3)C2)cc1 (mixture of isomers) [Compound 151, (+/−trans)-N-(4-acrylamidobenzyl)-5-((5-chloro-4-(1H-indol-3-yl)pyrimidin-2-yl)amino)piperidine-3-carboxamide]
IC50 (Jurkat; Homo sapiens, Jurkat, 72 h): < 500 nM
IC50 (CDK7): < 100 nM

N#Cc1cnc(NC2CCN(C(=O)c3ccc(N)cc3)CC2)nc1-c1c[nH]c2ccccc12 [Compound 26, 2-(1-(4-aminobenzoyl)piperidin-4-ylamino)-4-(1H-indol-3-yl)pyrimidine-5-carbonitrile]
IC50 (Jurkat; Homo sapiens, Jurkat, 72 h): 500 to 5000 nM
IC50 (CDK7): 100 to 1000 nM

CN(C)C/C=C/C(=O)Nc1ccc(C(=O)N2[C@@H]3CC[C@H]2C[C@@H](Nc2ncc(Cl)c(-c4c[nH]c5ccccc45)n2)C3)cc1 [Compound 116, ((1R,3R,5S)-3-(5-chloro-4-(1H-indol-3-yl)pyrimidin-2-ylamino)-8-aza-bicyclo[3.2.1]octan-8-yl)(4-((E)-N-4-(dimethylamino)but-2-enamide)phenyl)methanone]
IC50 (Jurkat; Homo sapiens, Jurkat, 72 h): 500 to 5000 nM
IC50 (CDK7): 100 to 1000 nM

Cc1cc(C(=O)N2CCC(Nc3ncc(Cl)c(-c4c[nH]c5ccccc45)n3)CC2)ccc1N [Compound 59, (4-amino-3-methylphenyl)(4-(5-chloro-4-(1H-indol-3-yl)pyrimidin-2-ylamino)piperidin-1-yl)methanone]
IC50 (Jurkat; Homo sapiens, Jurkat, 72 h): < 500 nM
IC50 (CDK7): < 100 nM

Nc1ccc(CN2CCC(Nc3ncc(Cl)c(-c4c[nH]c5ccccc45)n3)CC2)cc1 [Compound 48, N-(1-(4-aminobenzyl)piperidin-4-yl)-5-chloro-4-(1H-indol-3-yl)pyrimidin-2-amine.HCl]
IC50 (Jurkat; Homo sapiens, Jurkat, 72 h): 500 to 5000 nM
IC50 (CDK7): 100 to 1000 nM

NCCC(=O)Nc1cccc(Nc2ncc(Cl)c(-c3c[nH]c4ccccc34)n2)c1 [Compound 306, 3-amino-N-(3-(5-chloro-4-(1H-indol-3-yl)pyrimidin-2-ylamino)phenyl) propanamide.TFA]
IC50 (Jurkat; Homo sapiens, Jurkat, 72 h): 500 to 5000 nM
IC50 (CDK7): < 100 nM

Nc1ccc(C(=O)N2CC[C@@H](Nc3ncc(Cl)c(-c4c[nH]c5ccccc45)n3)C2)cc1 [Compound 35, (4-aminophenyl)((R)-3-(5-chloro-4-(1H-indol-3-yl)pyrimidin-2-ylamino)pyrrolidin-1-yl)methanone]
IC50 (Jurkat; Homo sapiens, Jurkat, 72 h): 500 to 5000 nM
IC50 (CDK7): < 100 nM

Cc1[nH]c2ccccc2c1-c1nc(N[C@@H]2CC[C@H](NC(=O)c3ccc(NC(=O)/C=C/CN(C)C)cc3)C2)ncc1Cl (racemic) [Compound 126, N-((1R,3S)-3-((5-chloro-4-(2-methyl-1H-indol-3-yl)pyrimidin-2-yl)amino)cyclopentyl)-4-((E)-4-(dimethylamino)but-2-enamido)benzamide and N-((1S,3R)-3-((5-chloro-4-(2-methyl-1H-indol-3-yl)pyrimidin-2-yl)amino)cyclopentyl)-4-((E)-4-(dimethylamino)but-2-enamido)benzamide]
IC50 (Jurkat; Homo sapiens, Jurkat, 72 h): < 500 nM
IC50 (CDK7): < 100 nM

CN(C/C=C/C(=O)Nc1ccc(CN2CCC(Nc3ncc(Cl)c(-c4c[nH]c5ccccc45)n3)CC2)cc1)CC(O)CO (centres unmarked) [Compound 143, (E)-N-(4-((4-((5-chloro-4-(1H-indol-3-yl)pyrimidin-2-yl)amino)piperidin-1-yl)methyl)phenyl)-4-((2,3-dihydroxypropyl)(methyl)amino)but-2-enamide]
IC50 (Jurkat; Homo sapiens, Jurkat, 72 h): < 500 nM
IC50 (CDK7): < 100 nM

CN(C)C/C=C/C(=O)Nc1ccc(C(=O)N[C@@H]2CC[C@H](Nc3ncc(Cl)c(-c4cccnc4)n3)C2)cc1 (racemic) [Compound 123, N-((1R,3S)-3-((5-chloro-4-(pyridin-3-yl)pyrimidin-2-yl)amino)cyclopentyl)-4-((E)-4-(dimethylamino)but-2-enamido)benzamide and N-((1S,3R)-3-((5-chloro-4-(pyridin-3-yl)pyrimidin-2-yl)amino)cyclopentyl)-4-((E)-4-(dimethylamino)but-2-enamido)benzamide]
IC50 (Jurkat; Homo sapiens, Jurkat, 72 h): < 500 nM
IC50 (CDK7): 100 to 1000 nM

Cc1nc(C)c(-c2nc(N[C@H]3CC[C@@H](NC(=O)c4ccc(NC(=O)/C=C/CN(C)C)cc4)C3)ncc2Cl)s1 (racemic) [Compound 128, N-((1R,3S)-3-((5-chloro-4-(2,4-dimethylthiazol-5-yl)pyrimidin-2-yl)amino)cyclopentyl)-4-((E)-4-(dimethylamino)but-2-enamido)benzamide and N-((1S,3R)-3-((5-chloro-4-(2,4-dimethylthiazol-5-yl)pyrimidin-2-yl)amino)cyclopentyl)-4-((E)-4-(dimethylamino)but-2-enamido)benzamide]
IC50 (Jurkat; Homo sapiens, Jurkat, 72 h): 500 to 5000 nM
IC50 (CDK7): 100 to 1000 nM

CN(C)C/C=C/C(=O)Nc1ccc(C(=O)N2CCC(Nc3ncc(Cl)c(-c4c[nH]c5ccccc45)n3)CC2)c(F)c1 [Compound 115, (E)-N-(4-(4-(5-chloro-4-(1H-indol-3-yl)pyrimidin-2-ylamino)piperidine-1-carbonyl)-3-fluorophenyl)-4-(dimethylamino)but-2-enamide]
IC50 (Jurkat; Homo sapiens, Jurkat, 72 h): < 500 nM
IC50 (CDK7): < 100 nM

CN(C)C/C=C/C(=O)NCCC(=O)Nc1cccc(Nc2ncc(Cl)c(-c3c[nH]c4ccccc34)n2)c1 [Compound 131, (E)-N-(3-(3-(5-chloro-4-(1H-indol-3-yl)pyrimidin-2-ylamino)phenylamino)-3-oxopropyl)-4-(dimethylamino)but-2-enamide]
IC50 (Jurkat; Homo sapiens, Jurkat, 72 h): 500 to 5000 nM
IC50 (CDK7): 100 to 1000 nM

CN(C)C/C=C/C(=O)Nc1ccc(C(=O)N2CCC(Nc3ncc(Cl)c(-c4c[nH]cn4)n3)CC2)cc1 [Compound 127, (E)-N-(4-(4-((5-chloro-4-(1H-imidazol-4-yl)pyrimidin-2-yl)amino)piperidine-1-carbonyl)phenyl)-4-(dimethylamino)but-2-enamide]
IC50 (Jurkat; Homo sapiens, Jurkat, 72 h): > 5000 nM
IC50 (CDK7): 100 to 1000 nM

CN(C/C=C/C(=O)Nc1ccc(CN2CCC(Nc3ncc(Cl)c(-c4c[nH]c5ccccc45)n3)CC2)cc1)CC(=O)O [Compound 148, 2-[[(E)-4-[4-[[4-[[5-chloro-4-(1H-indol-3-yl)pyrimidin-2-yl]amino]-1-piperidyl]methyl]anilino]-4-oxo-but-2-enyl]-methyl-amino]acetic acid]
IC50 (Jurkat; Homo sapiens, Jurkat, 72 h): 500 to 5000 nM
IC50 (CDK7): < 100 nM

CN(C)C/C=C/C(=O)NCC(=O)Nc1cccc(Nc2ncc(Cl)c(-c3c[nH]c4ccccc34)n2)c1 [Compound 137, (E)-N-(2-(3-(5-chloro-4-(1H-indol-3-yl)pyrimidin-2-ylamino)phenylamino)-2-oxoethyl)-4-(dimethylamino)but-2-enamide]
IC50 (Jurkat; Homo sapiens, Jurkat, 72 h): 500 to 5000 nM
IC50 (CDK7): < 100 nM

C=CC(=O)Nc1ccc(C(=O)NC2CC3(C2)CC(Nc2ncc(Cl)c(-c4c[nH]c5ccccc45)n2)C3)cc1 (centres unmarked) [Compound 138, 4-acrylamido-N-(6-((5-chloro-4-(1H-indol-3-yl)pyrimidin-2-yl)amino)spiro[3.3]heptan-2-yl)benzamide]
IC50 (Jurkat; Homo sapiens, Jurkat, 72 h): 500 to 5000 nM
IC50 (CDK7): 100 to 1000 nM

CC(C)(CNC(=O)c1ccc(NC(=O)/C=C/CO)cc1)CNc1ncc(Cl)c(-c2c[nH]c3ccccc23)n1 [Compound 132, (E)-N-(3-(5-chloro-4-(1H-indol-3-yl)pyrimidin-2-ylamino)-2,2-dimethylpropyl)-4-(4-hydroxybut-2-enamido)benzamide]
IC50 (Jurkat; Homo sapiens, Jurkat, 72 h): > 5000 nM
IC50 (CDK7): > 1000 nM

CN(C)C/C=C/C(=O)Nc1ccc(CN2CCC(Nc3ncc(Cl)c(-c4c[nH]c5ccccc45)n3)CC2)cc1 [Compound 106, (E)-N-(4-((4-((5-chloro-4-(1H-indol-3-yl)pyrimidin-2-yl)amino)piperidin-1-yl)methyl)phenyl)-4-(dimethylamino)but-2-enamide]
IC50 (Jurkat; Homo sapiens, Jurkat, 72 h): < 500 nM
IC50 (CDK7): < 100 nM

Nc1ccc(C(=O)N2CC[C@H](Nc3ncc(Cl)c(-c4c[nH]c5ccccc45)n3)C2)cc1 [Compound 24, (4-aminophenyl)((S)-3-(5-chloro-4-(1H-indol-3-yl)pyrimidin-2-ylamino)pyrrolidin-1-yl)methanone]
IC50 (Jurkat; Homo sapiens, Jurkat, 72 h): > 5000 nM
IC50 (CDK7): 100 to 1000 nM
